Assay results reported in patent US11229707B2, “Promoting immune responses” (National Institute of Biological Sciences, Beijing, priority 2018, dated 2022).
Like-named read-outs stand apart in the source and are kept apart here. Each block holds one compound with its values, some of them ahead of it.

Columns and labels:
[1] = system: innate immune responses in mice; experiment: Mouse dorsal air pouch model of acute inflammation (neutrophil recruitment, multiplex immunoassay for 36 cytokines); type: in vivo; details: for proinflammatory cytokines and chemokines in air pouches (IL-6, TNFα, IP-10, MCP-1/3, IFNγ, GM-CSF, MIP-1α and β, RANTES): air-pouch washes, compared with saline control; for neutrophil recruitment into the air pouch: injection into air pouch; for level of GRO-α/KC/CXCL1, IP-10 and MCP-1 in the sera: sera of injected mice
Description: To investigate whether ADP-Hep alone could stimulate innate immune responses in vivo, a mouse dorsal air pouch model established to assess acute inflammation was employed (Gaudet et al. Science 348, 1251-1255 (2015).
We then performed a multiplex immunoassay for 36 cytokines in both the air-pouch washes and the sera of injected mice. […] Thus, ADP-Hep but not HBP alone can potently activate innate immune responses in mice.
To confirm that 1-ADP-heptoses and 1-ADP-heptose-7-phosphates can stimulate innate immune responses in vivo, a mouse dorsal air pouch model established to assess acute inflammation was employed (Gaudet, et al. Science 348, 1251-1255 (2015).
Injection of 1-ADP-heptoses and 1-ADP-heptose-7-phosphates into the air pouch induces neutrophil recruitment into the pouch. […] 1-ADP-heptoses and 1-ADP-heptose-7-phosphates also increase the level of keratinocyte-derived chemokine (GRO-a/KC/CXCL1), IP-10 and MCP-1 in the sera.

TIFA = TIFA phosphorylation in 293T cells stably expressing EGFP-TIFA, anti-pT9-TIFA immunoblot; type: cell-based; details: 5 μM for 5 hours
Description: FIG. 1B. […] 293T cells stably expressing EGFP-TIFA were treated with ADP-heptose analogs (5 μM) for 5 hours, and analyzed by anti-pT9-TIFA immunoblot.

B16-OVA melanoma cells = experiment: B16-OVA tumor growth, posttumor intratumor treatment; type: in vivo, C57BL/6N mice; details: 0.5 mg/mouse intratumor injection on day 8, 11, 14, 17
Description: FIG. 1D and FIG. 1E. […] C57BL/6N mice (n=6 mice per group) were injected subcutaneously with 2×10^5 B16-OVA melanoma cells on day 0. ADP-heptose (0.5 mg/mouse) was administered on day 8, 11, 14, and 17 after tumor inoculation by intratumor injection. Tumor volume (D) and tumor weight (E).

[2] = system: ovalbumin (OVA)-specific IgG; experiment: Adjuvant activity in vivo: OVA immunization, serum OVA-specific IgG by ELISA; details: C57BL/6N mice, intramuscular, 10 μg OVA mixed with 0.5 mg/mouse; after 21 days
Description: FIG. 1C. […] C57BL/6N mice (8 mice per group) were immunized intramuscularly with 10 μg OVA mixed with PBS, alum (2 mg/mouse), or ADP-heptose (0.5 mg/mouse). After 21 days, serum titers of OVA-specific IgG were measured by ELISA.

THP-1 and 293T cells [3] = experiment: Host cytosol entry, NF-kB activation and cytokine induction in THP-1 and 293T cells; details: for cytokines induction (such as interleukin-8): THP-1 and 293T cells, compound added on its own
[4] = system: MC38 colorectal adenocarcinoma cells; experiment: MC38 tumor growth, posttumor treatment with checkpoint blockade; type: in vivo, C57BL/6N mice; details: 0.5 mg/mouse intratumor combined with anti-PD-1 antibody 40 ug/mouse intraperitoneal, day 13-28
Description: FIG. 1F. […] C57BL/6N mice (n=6 mice per group) were injected subcutaneously with 2×10^5 MC38 colorectal adenocarcinoma cells on day 0. ADP-heptose (0.5 mg/mouse, intratumor injection) and anti-PD-1 antibody (40 ug/mouse, intraperitoneal injection) was administered on day 13, 16, 19, 22, 25, and 28 after tumor inoculation.

alpha-kinase 1 (ALPK1) = alpha-kinase 1 (ALPK1) (Homo sapiens, UniProt Q96QP1); experiment: ALPK1 activation (kinase domain phosphorylation of TIFA); type: biochemical
NF-κB in 293T cells = experiment: NF-κB activation in 293T cells, luciferase reporter activity; type: cell-based
[5] = target: ALPK1 N-terminal domain (NTD) (Homo sapiens, UniProt Q96QP1); experiment: Direct binding to ALPK1 N-terminal domain
THP-1 and 293T cells [6] = system: THP-1 and 293T cells

Sequence of alpha-kinase 1 (ALPK1) (Q96QP1 whole entry, the tested form may be a part): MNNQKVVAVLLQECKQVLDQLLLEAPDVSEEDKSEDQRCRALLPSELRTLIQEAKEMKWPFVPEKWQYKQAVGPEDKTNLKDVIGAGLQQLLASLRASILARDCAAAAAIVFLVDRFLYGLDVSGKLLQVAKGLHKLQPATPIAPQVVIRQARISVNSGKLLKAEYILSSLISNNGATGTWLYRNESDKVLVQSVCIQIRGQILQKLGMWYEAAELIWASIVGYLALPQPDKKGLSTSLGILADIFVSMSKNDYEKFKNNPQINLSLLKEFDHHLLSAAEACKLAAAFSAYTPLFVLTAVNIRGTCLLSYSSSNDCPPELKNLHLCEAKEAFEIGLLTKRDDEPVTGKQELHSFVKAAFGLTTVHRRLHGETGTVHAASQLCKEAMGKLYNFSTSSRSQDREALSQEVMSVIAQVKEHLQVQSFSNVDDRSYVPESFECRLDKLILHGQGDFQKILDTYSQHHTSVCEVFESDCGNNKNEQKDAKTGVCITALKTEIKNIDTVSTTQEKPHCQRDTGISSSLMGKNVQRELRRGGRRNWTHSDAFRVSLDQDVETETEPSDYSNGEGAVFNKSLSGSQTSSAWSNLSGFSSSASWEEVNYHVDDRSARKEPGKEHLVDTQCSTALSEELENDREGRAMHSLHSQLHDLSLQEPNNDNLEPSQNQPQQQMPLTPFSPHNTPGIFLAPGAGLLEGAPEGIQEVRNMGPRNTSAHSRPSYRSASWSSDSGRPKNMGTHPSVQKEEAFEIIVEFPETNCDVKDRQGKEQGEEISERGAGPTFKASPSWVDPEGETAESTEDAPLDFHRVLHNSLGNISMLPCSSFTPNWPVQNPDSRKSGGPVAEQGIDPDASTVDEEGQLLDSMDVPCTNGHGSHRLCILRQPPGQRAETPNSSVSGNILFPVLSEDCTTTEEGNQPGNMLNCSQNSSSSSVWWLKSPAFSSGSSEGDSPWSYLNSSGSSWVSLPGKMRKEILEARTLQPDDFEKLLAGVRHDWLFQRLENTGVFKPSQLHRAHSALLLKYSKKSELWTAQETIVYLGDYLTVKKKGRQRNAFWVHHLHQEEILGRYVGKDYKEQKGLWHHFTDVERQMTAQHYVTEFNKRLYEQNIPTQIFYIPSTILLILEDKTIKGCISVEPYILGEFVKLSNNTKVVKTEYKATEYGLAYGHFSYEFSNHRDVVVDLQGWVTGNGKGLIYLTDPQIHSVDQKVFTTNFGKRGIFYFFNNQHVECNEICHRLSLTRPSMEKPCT
Sequence of ALPK1 N-terminal domain (NTD) (Q96QP1 1-473 limits assumed): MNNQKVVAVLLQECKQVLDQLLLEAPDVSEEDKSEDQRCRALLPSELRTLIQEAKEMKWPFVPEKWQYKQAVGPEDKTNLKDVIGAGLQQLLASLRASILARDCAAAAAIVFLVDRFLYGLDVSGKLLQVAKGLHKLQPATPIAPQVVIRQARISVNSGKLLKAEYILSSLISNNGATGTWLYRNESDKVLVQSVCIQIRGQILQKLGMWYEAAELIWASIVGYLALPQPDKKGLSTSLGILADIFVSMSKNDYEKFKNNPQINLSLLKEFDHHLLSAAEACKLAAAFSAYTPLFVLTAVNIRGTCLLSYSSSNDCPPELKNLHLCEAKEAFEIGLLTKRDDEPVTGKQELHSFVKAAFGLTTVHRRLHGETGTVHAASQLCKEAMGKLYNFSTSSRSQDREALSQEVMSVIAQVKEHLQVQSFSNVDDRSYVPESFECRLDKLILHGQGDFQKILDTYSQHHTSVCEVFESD

Structure (SMILES): Nc1ncnc2c1ncn2[C@@H]1O[C@H](COP(=O)(O)OP(=O)(O)O[C@@H]2O[C@H]([C@@H](O)CO)[C@@H](O)[C@H](O)[C@@H]2O)[C@@H](O)[C@H]1O [ADP-LD-Hep]
proinflammatory cytokines and chemokines in air pouches (IL-6, TNFα, IP-10, MCP-1/3, IFNγ, GM-CSF, MIP-1α and β, RANTES) [1]: highly elevated
neutrophil recruitment into the air pouch [1]: induced massive neutrophil recruitment into the pouch
level of GRO-α/KC/CXCL1, IP-10 and MCP-1 in the sera [1]: increased the level

Structure (SMILES): Nc1ncnc2c1ncn2[C@@H]1O[C@H](COP(=O)(O)OP(=O)(O)O[C@@H]2O[C@H]([C@H](O)CO)[C@@H](O)[C@H](O)[C@@H]2O)[C@@H](O)[C@H]1O [ADP-heptose, 1-ADP-β-D-manno-Heptose]
inflammatory responses in mice after injection ([1]; mice, Alpk1-dependent): induces robust inflammatory responses in mice
TIFA phosphorylation (anti-pT9-TIFA immunoblot) (TIFA): induced TIFA phosphorylation
B16-OVA tumor growth (tumor volume, tumor weight) (B16-OVA melanoma cells): Inhibition of B16-OVA tumor growth
serum ovalbumin (OVA)-specific IgG production (adjuvant activity) [2]: exhibited adjuvant activity in vivo to elevate the serum ovalbumin (OVA)-specific IgG production
cytokines induction (such as interleukin-8) (THP-1 and 293T cells [3]): cytokines induction
entry into host cytosol on its own (THP-1 and 293T cells [3]; host cells): could enter host cytosol on its own
MC38 tumor growth [4]: Inhibition of MC38 tumor growth
ALPK1 activation (alpha-kinase 1 (ALPK1)): stimulates the NTD-bound C-terminal kinase domain to phosphorylate TIFA and induce its oligomerization
NF-κB activation (luciferase reporter activity) (NF-κB in 293T cells): activated NF-κB in 293T cells in a dose-dependent manner
direct binding to ALPK1 N-terminal domain [5]: directly binds

ALPK1 activation (alpha-kinase 1 (ALPK1)): ALPK1 activation-competent
Structure (SMILES): Nc1ncnc2c1ncn2C1OC(COP(=O)(O)OP(=O)(O)OC2OC(C(O)COP(=O)(O)O)C(O)C(O)C2O)C(O)C1O (stereo not shown) [ADP-Heptose 7-P]

Structure (SMILES): O=c1ccn(C2OC(COP(=O)(O)OP(=O)(O)OC3OC(C(O)CO)C(O)C(O)C3O)C(O)C2O)c(=O)[nH]1 (stereo not shown) [UDP-heptose]
TIFA phosphorylation (anti-pT9-TIFA immunoblot) (TIFA): induce TIFA phosphorylation
NF-κB activation (luciferase reporter activity) (NF-κB in 293T cells): activated NF-κB in 293T cells in a dose-dependent manner

Structure (SMILES): Nc1ccn(C2CC(O)C(COP(=O)(O)OP(=O)(O)OC3OC(C(O)CO)C(O)C(O)C3O)O2)c(=O)n1 (stereo not shown) [dCDP-heptose]
TIFA phosphorylation (anti-pT9-TIFA immunoblot) (TIFA): induce TIFA phosphorylation
NF-κB activation (luciferase reporter activity) (NF-κB in 293T cells): activated NF-κB in 293T cells in a dose-dependent manner

Structure (SMILES): Nc1ncnc2c1ncn2C1CC(O)C(COP(=O)(O)OP(=O)(O)OC2OC(C(O)CO)C(O)C(O)C2O)O1 (stereo not shown) [dADP-heptose]
TIFA phosphorylation (anti-pT9-TIFA immunoblot) (TIFA): induce TIFA phosphorylation
NF-κB activation (luciferase reporter activity) (NF-κB in 293T cells): activated NF-κB in 293T cells in a dose-dependent manner

Structure (SMILES): Nc1ccn(C2OC(COP(=O)(O)OP(=O)(O)OC3OC(C(O)CO)C(O)C(O)C3O)C(O)C2O)c(=O)n1 (stereo not shown) [CDP-heptose]
TIFA phosphorylation (anti-pT9-TIFA immunoblot) (TIFA): induce TIFA phosphorylation
NF-κB activation (luciferase reporter activity) (NF-κB in 293T cells): activated NF-κB in 293T cells in a dose-dependent manner

entry into host cytosol on its own (THP-1 and 293T cells [6]): cell-impermeable
Structure (SMILES): O=P(O)(O)OC[C@@H](O)[C@H]1O[C@@H](OP(=O)(O)O)[C@@H](O)[C@@H](O)[C@@H]1O [HBP, D-glycero-β-D-manno Heptose 1,7-bisphosphate, reference compound]
proinflammatory cytokines and chemokines in air pouches (IL-6, TNFα, IP-10, MCP-1/3, IFNγ, GM-CSF, MIP-1α and β, RANTES) [1]: did not affect local and systemic productions
neutrophil recruitment into the air pouch [1]: failed to increase the number of air-pouch neutrophils
level of GRO-α/KC/CXCL1, IP-10 and MCP-1 in the sera [1]: did not affect local and systemic productions
cytokines induction (such as interleukin-8) (THP-1 and 293T cells [3]): not
NF-κB activation (THP-1 and 293T cells [3]; transfected into host cells): NF-κB activation observed

Structure (SMILES): Cc1cn(C2CC(O)C(COP(=O)(O)OP(=O)(O)OC3OC(C(O)CO)C(O)C(O)C3O)O2)c(=O)[nH]c1=O (stereo not shown) [dTDP-heptose]
TIFA phosphorylation (anti-pT9-TIFA immunoblot) (TIFA): induce TIFA phosphorylation
NF-κB activation (luciferase reporter activity) (NF-κB in 293T cells): activated NF-κB in 293T cells in a dose-dependent manner

Structure (SMILES): Nc1nc2c(ncn2[C@@H]2O[C@H](COP(=O)(O)OP(=O)(O)O[C@H]3O[C@H]([C@H](O)CO)[C@@H](O)[C@H](O)[C@@H]3O)[C@@H](O)[C@H]2O)c(=O)[nH]1 [GDP-heptose]
TIFA phosphorylation (anti-pT9-TIFA immunoblot) (TIFA): induce TIFA phosphorylation
NF-κB activation (luciferase reporter activity) (NF-κB in 293T cells): activated NF-κB in 293T cells in a dose-dependent manner

Structure (SMILES): Nc1nc2c(ncn2C2CC(O)C(COP(=O)(O)OP(=O)(O)OC3OC(C(O)CO)C(O)C(O)C3O)O2)c(=O)[nH]1 (stereo not shown) [dGDP-heptose]
TIFA phosphorylation (anti-pT9-TIFA immunoblot) (TIFA): induce TIFA phosphorylation
NF-κB activation (luciferase reporter activity) (NF-κB in 293T cells): activated NF-κB in 293T cells in a dose-dependent manner
